Results as given in PubChem BioAssay AID1963842 (Molecular Pharmacology Branch, DTP, NCI, 2024).

System: 677734-321-R-J1-PDC complex spheroid viability
Assay: Anticancer human tumor 677734-321-R-J1-PDC patient-derived soft tissue sarcoma cell line growth inhibition [POLQ]
Details: for IC50: curve of first compound; for viability, T/C: stronger effect = lower value
Summary of the method: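 PDC + HUVEC + MSC complex spheroids; POLQ inhibitors ± partner drugs; top conc. at/near clinical Cmax, else 10 microM (SN-38 1 microM), half-log dilutions; 37 degrees C, 5% CO2.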

[1] = second compound 0.0316 µM, first compound 0.0316 µM
[2] = second compound 0.0316 µM, first compound 0.1 µM
[3] = second compound 0.0316 µM, first compound 0.316 µM
[4] = second compound 0.0316 µM, first compound 1 µM
[5] = second compound 0.0316 µM, first compound 3.16 µM
[6] = second compound 0.0316 µM, first compound 10 µM
[7] = second compound 0.1 µM, first compound 0.0316 µM
[8] = second compound 0.1 µM, first compound 0.1 µM
[9] = second compound 0.1 µM, first compound 0.316 µM
[10] = second compound 0.1 µM, first compound 1 µM
[11] = second compound 0.1 µM, first compound 3.16 µM
[12] = second compound 0.1 µM, first compound 10 µM
[13] = second compound 0.316 µM, first compound 0.0316 µM
[14] = second compound 0.316 µM, first compound 0.1 µM
[15] = second compound 0.316 µM, first compound 0.316 µM
[16] = second compound 0.316 µM, first compound 1 µM
[17] = second compound 0.316 µM, first compound 3.16 µM
[18] = second compound 0.316 µM, first compound 10 µM
[19] = second compound 1 µM, first compound 0.0316 µM
[20] = second compound 1 µM, first compound 0.1 µM
[21] = second compound 1 µM, first compound 0.316 µM
[22] = second compound 1 µM, first compound 1 µM
[23] = second compound 1 µM, first compound 3.16 µM
[24] = second compound 1 µM, first compound 10 µM
[25] = second compound 3.16 µM, first compound 0.0316 µM
[26] = second compound 3.16 µM, first compound 0.1 µM
[27] = second compound 3.16 µM, first compound 0.316 µM
[28] = second compound 3.16 µM, first compound 1 µM
[29] = second compound 3.16 µM, first compound 3.16 µM
[30] = second compound 3.16 µM, first compound 10 µM
[31] = second compound 10 µM, first compound 0.0316 µM
[32] = second compound 10 µM, first compound 0.1 µM
[33] = second compound 10 µM, first compound 0.316 µM
[34] = second compound 10 µM, first compound 1 µM
[35] = second compound 10 µM, first compound 3.16 µM
[36] = second compound 10 µM, first compound 10 µM
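Further: spheroids exposed to compounds for one week.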
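Wherever viability, T/C is given: 100% = vehicle DMSO treated spheroids.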

O=C(Nc1ccc(O)c(NS(=O)(=O)c2ccc(F)cc2)c1)c1ccc(-c2ccccc2)cc1 + Nc1ccc(C#CCN(C(=O)Cc2ncc(C(F)(F)F)cc2C(F)(F)F)c2ccc(F)cc2)nn1
IC50 (second compound 0.0316 µM): 4980 nM
IC50 (second compound 0.1 µM): 4840 nM
IC50 (second compound 0.316 µM): 3590 nM
IC50 (second compound 1 µM): 4080 nM
IC50 (second compound 3.16 µM): 4070 nM
IC50 (second compound 10 µM): 3820 nM
viability, T/C [1]: 106%
viability, T/C [2]: 115%
viability, T/C [3]: 97%
viability, T/C [4]: 106%
viability, T/C [5]: 68.7%
viability, T/C [6]: 21.3%
viability, T/C [7]: 106%
viability, T/C [8]: 102%
viability, T/C [9]: 94%
viability, T/C [10]: 102%
viability, T/C [11]: 69.4%
viability, T/C [12]: 17.1%
viability, T/C [13]: 104%
viability, T/C [14]: 113%
viability, T/C [15]: 110%
viability, T/C [16]: 103%
viability, T/C [17]: 53.5%
viability, T/C [18]: 22.1%
viability, T/C [19]: 114%
viability, T/C [20]: 109%
viability, T/C [21]: 104%
viability, T/C [22]: 105%
viability, T/C [23]: 58.6%
viability, T/C [24]: 19.4%
viability, T/C [25]: 119%
viability, T/C [26]: 114%
viability, T/C [27]: 101%
viability, T/C [28]: 111%
viability, T/C [29]: 58.2%
viability, T/C [30]: 19.9%
viability, T/C [31]: 109%
viability, T/C [32]: 115%
viability, T/C [33]: 109%
viability, T/C [34]: 103%
viability, T/C [35]: 56.5%
viability, T/C [36]: 16.5%

COc1cccc(OCCCN)c1-c1cc(Nc2cnc(C#N)cn2)n[nH]1 + Nc1ccc(C#CCN(C(=O)Cc2ncc(C(F)(F)F)cc2C(F)(F)F)c2ccc(F)cc2)nn1
IC50 (second compound 0.0316 µM): 6.21 nM
IC50 (second compound 0.1 µM): 4.6 nM
IC50 (second compound 0.316 µM): 5.33 nM
IC50 (second compound 1 µM): 6.15 nM
IC50 (second compound 3.16 µM): 4.93 nM
IC50 (second compound 10 µM): 3.71 nM
viability, T/C (second compound 0.0316 µM, first compound 0.00316 µM): 101%
viability, T/C (second compound 0.0316 µM, first compound 0.01 µM): 13.8%
viability, T/C [1]: 5.82%
viability, T/C [2]: 6.83%
viability, T/C [3]: 7.28%
viability, T/C [4]: 5.14%
viability, T/C (second compound 0.1 µM, first compound 0.00316 µM): 67.2%
viability, T/C (second compound 0.1 µM, first compound 0.01 µM): 14.3%
viability, T/C [7]: 6.58%
viability, T/C [8]: 6.56%
viability, T/C [9]: 8.96%
viability, T/C [10]: 3.87%
viability, T/C (second compound 0.316 µM, first compound 0.00316 µM): 77%
viability, T/C (second compound 0.316 µM, first compound 0.01 µM): 17.7%
viability, T/C [13]: 5.86%
viability, T/C [14]: 9.23%
viability, T/C [15]: 6.18%
viability, T/C [16]: 5.17%
viability, T/C (second compound 1 µM, first compound 0.00316 µM): 83.6%
viability, T/C (second compound 1 µM, first compound 0.01 µM): 25.5%
viability, T/C [19]: 6%
viability, T/C [20]: 6.97%
viability, T/C [21]: 6.56%
viability, T/C [22]: 5.02%
viability, T/C (second compound 3.16 µM, first compound 0.00316 µM): 72.7%
viability, T/C (second compound 3.16 µM, first compound 0.01 µM): 13.8%
viability, T/C [25]: 9%
viability, T/C [26]: 6.22%
viability, T/C [27]: 7.97%
viability, T/C [28]: 5.64%
viability, T/C (second compound 10 µM, first compound 0.00316 µM): 56.6%
viability, T/C (second compound 10 µM, first compound 0.01 µM): 9.16%
viability, T/C [31]: 6.91%
viability, T/C [32]: 7.72%
viability, T/C [33]: 6.82%
viability, T/C [34]: 5.03%

CNCc1ccc(-c2[nH]c3cc(F)cc4c3c2CCNC4=O)cc1 + Cc1cccc(N(C)C(=O)C2C(O)CCN2c2nc(C)cc(C(F)(F)F)c2C#N)c1
IC50 (second compound 0.0316 µM): > 10000 nM
IC50 (second compound 0.1 µM): > 10000 nM
IC50 (second compound 0.316 µM): > 10000 nM
IC50 (second compound 1 µM): > 10000 nM
IC50 (second compound 3.16 µM): > 10000 nM
IC50 (second compound 10 µM): > 10000 nM
viability, T/C [1]: 107%
viability, T/C [2]: 104%
viability, T/C [3]: 107%
viability, T/C [4]: 106%
viability, T/C [5]: 107%
viability, T/C [6]: 107%
viability, T/C [7]: 108%
viability, T/C [8]: 110%
viability, T/C [9]: 103%
viability, T/C [10]: 101%
viability, T/C [11]: 106%
viability, T/C [12]: 105%
viability, T/C [13]: 120%
viability, T/C [14]: 104%
viability, T/C [15]: 104%
viability, T/C [16]: 105%
viability, T/C [17]: 113%
viability, T/C [18]: 98.9%
viability, T/C [19]: 108%
viability, T/C [20]: 94.9%
viability, T/C [21]: 104%
viability, T/C [22]: 114%
viability, T/C [23]: 106%
viability, T/C [24]: 107%
viability, T/C [25]: 110%
viability, T/C [26]: 96.5%
viability, T/C [27]: 102%
viability, T/C [28]: 108%
viability, T/C [29]: 107%
viability, T/C [30]: 99.3%
viability, T/C [31]: 109%
viability, T/C [32]: 95.2%
viability, T/C [33]: 104%
viability, T/C [34]: 101%
viability, T/C [35]: 91.4%
viability, T/C [36]: 98.6%

CC1COCCN1c1cc(C2(O)CC3CCC(C2)O3)c2cnn(-c3ccn[nH]3)c2n1 (stereo not drawn) + Nc1ccc(C#CCN(C(=O)Cc2ncc(C(F)(F)F)cc2C(F)(F)F)c2ccc(F)cc2)nn1
IC50 (second compound 0.0316 µM): < 31.6 nM
IC50 (second compound 0.1 µM): < 31.6 nM
IC50 (second compound 0.316 µM): < 31.6 nM
IC50 (second compound 1 µM): < 31.6 nM
IC50 (second compound 3.16 µM): < 31.6 nM
IC50 (second compound 10 µM): < 31.6 nM
viability, T/C [1]: 36.8%
viability, T/C [2]: 20.4%
viability, T/C [3]: 7.94%
viability, T/C [4]: 7.29%
viability, T/C [5]: 8.37%
viability, T/C [6]: 6.3%
viability, T/C [7]: 48.2%
viability, T/C [8]: 15%
viability, T/C [9]: 10.1%
viability, T/C [10]: 7.88%
viability, T/C [11]: 10.1%
viability, T/C [12]: 7.23%
viability, T/C [13]: 35.1%
viability, T/C [14]: 11.7%
viability, T/C [15]: 8.93%
viability, T/C [16]: 7.29%
viability, T/C [17]: 7.85%
viability, T/C [18]: 6.34%
viability, T/C [19]: 44.7%
viability, T/C [20]: 15.9%
viability, T/C [21]: 8.7%
viability, T/C [22]: 7.59%
viability, T/C [23]: 8.26%
viability, T/C [24]: 6%
viability, T/C [25]: 45.2%
viability, T/C [26]: 12.9%
viability, T/C [27]: 10%
viability, T/C [28]: 8.6%
viability, T/C [29]: 8.2%
viability, T/C [30]: 4.99%
viability, T/C [31]: 35.5%
viability, T/C [32]: 26.6%
viability, T/C [33]: 7.13%
viability, T/C [34]: 10.5%
viability, T/C [35]: 7.26%
viability, T/C [36]: 11.5%
